Test results published in patent US6639515B2, “Surveillance system for adverse events during drug development studies” (Novo Nordisk A/S, priority 2001, dated 2003).

Assays:
[1] = Phase III trials, CUSUM surveillance of prolapses and urinary incontinence; assay type: in vivo, women
Excerpt: Phase III consisted of studies including 3000 women. The inclusion criteria were extended so that the women were older than those participating in phase II. Subjects were randomized to take either a placebo or NNC 46-0020 in one of two doses. […] As explained in detail below, this product has motivated the choice of parameters in the examples.
Early in phase III, a number of reports of prolapses and urinary incontinence were received. It was suspected that there were too many cases of prolapses and incontinence. Therefore, it was decided to set up a surveillance program, including expedited reporting of the events even though they are not classified as serious adverse events. Furthermore, investigators were instructed specifically to check for these types of events.
First, it was decided to set up separate programs for prolapses and incontinence, but later the etiology was suspected to be the same and therefore a combined program was used. The incidence of these events is poorly documented in the literature. There are a few reports on the prevalence and based on these, an incidence of 1%/year for each type of adverse event was chosen. This gives an estimated 60 events during the first year of the trial, distributed with 40 in the treatment group, and 20 in the placebo group. An alternative considered was to have a relative risk of 2, corresponding to an expected number of […]. The lower limit c was chosen as 0.
Due to the focus on these events, a number of adverse events were reported each day, and safety committee meetings were held each week. […] At this time, the process had passed not only the limit corresponding to the incidence of 1% of each type of adverse event, but also the limit corresponding to an incidence of 10%. Such “overrunning” seems to be unavoidable for multi-center studies. The distribution 44 to 1 corresponds to a relative risk of 22 for NNC 46-0020. […]

[2] = Phase II trials, adverse events; assay type: in vivo, women
Excerpt: The present invention was used to test a particular drug compound, NNC 46-0020, which was designed to protect healthy women from getting osteoporosis.

SMILES: COc1ccc2c(c1)OC(C)(C)[C@@H](c1ccccc1)[C@@H]2c1ccc(OCCN2CCCC2)cc1 [NNC 46-0020]
- final analysis of risk of prolapses and incontinence ([1]; after termination of the phase III trials, relative risk estimate reduced): increased risk of prolapses and incontinence
- relative risk of prolapses and incontinence ([1]; phase III, drug (two doses pooled, 2/3 of patients) versus placebo (1/3), at the committee meeting where the alarm limit was passed): 22
- distribution of adverse events (prolapses and incontinence), treatment group to placebo group ([1]; phase III, unblinded cases at the committee meeting where the alarm limit was passed): 44 to 1
- adverse events in phase II trials [2]: without major problems regarding adverse events
